Measurements as given in patent publication US20100137449A1, “SUBSTITUTED 1,3-CYCLOPENTADIONE MULTI-TARGET PROTEIN KINASE MODULATORS OF CANCER, ANGIOGENESIS AND THE INFLAMMATORY PATHWAYS ASSOCIATED THEREWITH” (METAPROTEOMICS, LLC, priority 2007, published 2010).

What was measured:
Test in all cases: KinaseProfiler Assay
Axl(h) = biological target: T1, Axl(h) (Homo sapiens, UniProt P30530)
T1 sequence (P30530 26-894): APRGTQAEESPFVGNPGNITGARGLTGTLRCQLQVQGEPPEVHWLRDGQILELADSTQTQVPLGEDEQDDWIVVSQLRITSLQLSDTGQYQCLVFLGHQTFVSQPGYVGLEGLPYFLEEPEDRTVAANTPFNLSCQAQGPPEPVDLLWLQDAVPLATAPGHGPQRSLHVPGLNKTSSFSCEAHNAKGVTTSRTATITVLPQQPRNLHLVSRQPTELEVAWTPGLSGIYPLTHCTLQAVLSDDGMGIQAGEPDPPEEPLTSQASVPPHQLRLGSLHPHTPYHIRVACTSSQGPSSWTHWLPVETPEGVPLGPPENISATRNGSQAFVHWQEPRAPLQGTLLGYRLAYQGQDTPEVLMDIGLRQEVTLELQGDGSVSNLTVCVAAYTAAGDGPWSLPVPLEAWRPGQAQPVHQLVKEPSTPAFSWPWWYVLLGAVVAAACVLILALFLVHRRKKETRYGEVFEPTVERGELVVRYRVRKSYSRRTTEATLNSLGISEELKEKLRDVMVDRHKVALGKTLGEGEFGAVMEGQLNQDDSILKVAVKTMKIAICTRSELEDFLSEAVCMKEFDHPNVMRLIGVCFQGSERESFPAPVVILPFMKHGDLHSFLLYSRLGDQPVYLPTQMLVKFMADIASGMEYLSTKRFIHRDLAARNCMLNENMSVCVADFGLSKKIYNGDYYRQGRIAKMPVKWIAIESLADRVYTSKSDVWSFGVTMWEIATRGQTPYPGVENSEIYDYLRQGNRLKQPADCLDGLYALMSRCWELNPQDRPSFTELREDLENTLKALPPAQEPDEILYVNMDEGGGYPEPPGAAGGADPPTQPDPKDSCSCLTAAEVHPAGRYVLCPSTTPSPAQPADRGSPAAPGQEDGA

IKKα(h) = biological target: T2, IKKα(h) (Homo sapiens, UniProt O15111)
T2 sequence (O15111 1-745): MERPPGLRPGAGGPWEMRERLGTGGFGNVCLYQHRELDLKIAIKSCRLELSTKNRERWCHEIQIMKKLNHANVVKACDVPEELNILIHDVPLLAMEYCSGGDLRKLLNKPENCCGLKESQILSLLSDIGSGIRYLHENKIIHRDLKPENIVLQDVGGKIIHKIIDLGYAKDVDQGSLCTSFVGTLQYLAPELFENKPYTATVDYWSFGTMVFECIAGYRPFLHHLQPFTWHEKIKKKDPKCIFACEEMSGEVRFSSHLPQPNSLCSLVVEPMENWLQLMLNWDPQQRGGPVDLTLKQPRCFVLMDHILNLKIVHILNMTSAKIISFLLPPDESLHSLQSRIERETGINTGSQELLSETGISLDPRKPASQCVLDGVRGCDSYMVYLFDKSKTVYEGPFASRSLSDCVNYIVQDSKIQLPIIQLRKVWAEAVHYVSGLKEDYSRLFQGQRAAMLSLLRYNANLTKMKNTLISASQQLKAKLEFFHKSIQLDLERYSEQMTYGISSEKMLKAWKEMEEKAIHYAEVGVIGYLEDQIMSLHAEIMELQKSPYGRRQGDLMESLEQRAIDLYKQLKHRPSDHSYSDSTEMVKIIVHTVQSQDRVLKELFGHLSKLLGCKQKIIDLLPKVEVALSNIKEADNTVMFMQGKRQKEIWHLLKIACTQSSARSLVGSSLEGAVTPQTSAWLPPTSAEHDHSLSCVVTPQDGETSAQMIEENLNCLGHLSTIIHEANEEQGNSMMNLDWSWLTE

Lyn(h) = Lyn(h) (Homo sapiens, UniProt P07948)
Sequence of Lyn(h) (P07948 whole entry): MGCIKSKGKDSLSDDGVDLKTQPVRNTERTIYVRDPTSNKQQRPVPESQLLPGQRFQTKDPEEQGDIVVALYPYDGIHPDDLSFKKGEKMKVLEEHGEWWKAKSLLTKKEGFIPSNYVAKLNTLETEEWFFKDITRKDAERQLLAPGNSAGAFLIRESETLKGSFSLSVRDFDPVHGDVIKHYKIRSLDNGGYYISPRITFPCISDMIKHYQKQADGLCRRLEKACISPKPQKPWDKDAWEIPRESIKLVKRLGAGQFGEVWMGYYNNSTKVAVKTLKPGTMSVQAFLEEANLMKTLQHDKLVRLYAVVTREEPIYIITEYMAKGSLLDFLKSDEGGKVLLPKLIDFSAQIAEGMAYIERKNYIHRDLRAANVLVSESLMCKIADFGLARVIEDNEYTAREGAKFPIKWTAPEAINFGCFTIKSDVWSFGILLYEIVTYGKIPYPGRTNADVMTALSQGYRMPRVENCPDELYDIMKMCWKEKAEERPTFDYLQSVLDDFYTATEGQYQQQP

PhKγ2(h) = biological target: T3, PhKγ2(h) (Homo sapiens, UniProt P15735)
T3 sequence (P15735 1-406): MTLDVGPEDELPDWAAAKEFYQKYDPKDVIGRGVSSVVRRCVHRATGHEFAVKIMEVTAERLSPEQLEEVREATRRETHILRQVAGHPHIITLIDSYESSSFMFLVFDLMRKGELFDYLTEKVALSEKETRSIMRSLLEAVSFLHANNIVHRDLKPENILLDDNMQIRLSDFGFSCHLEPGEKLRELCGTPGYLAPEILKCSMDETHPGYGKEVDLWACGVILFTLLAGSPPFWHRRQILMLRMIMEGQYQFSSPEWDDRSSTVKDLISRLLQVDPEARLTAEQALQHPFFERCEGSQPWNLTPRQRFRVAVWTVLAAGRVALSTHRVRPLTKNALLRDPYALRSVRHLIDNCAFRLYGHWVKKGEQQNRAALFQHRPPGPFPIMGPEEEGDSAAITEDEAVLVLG

Tie2(h) = Tie2(h) (Homo sapiens, UniProt Q02763)
Sequence of Tie2(h) (Q02763 23-1124): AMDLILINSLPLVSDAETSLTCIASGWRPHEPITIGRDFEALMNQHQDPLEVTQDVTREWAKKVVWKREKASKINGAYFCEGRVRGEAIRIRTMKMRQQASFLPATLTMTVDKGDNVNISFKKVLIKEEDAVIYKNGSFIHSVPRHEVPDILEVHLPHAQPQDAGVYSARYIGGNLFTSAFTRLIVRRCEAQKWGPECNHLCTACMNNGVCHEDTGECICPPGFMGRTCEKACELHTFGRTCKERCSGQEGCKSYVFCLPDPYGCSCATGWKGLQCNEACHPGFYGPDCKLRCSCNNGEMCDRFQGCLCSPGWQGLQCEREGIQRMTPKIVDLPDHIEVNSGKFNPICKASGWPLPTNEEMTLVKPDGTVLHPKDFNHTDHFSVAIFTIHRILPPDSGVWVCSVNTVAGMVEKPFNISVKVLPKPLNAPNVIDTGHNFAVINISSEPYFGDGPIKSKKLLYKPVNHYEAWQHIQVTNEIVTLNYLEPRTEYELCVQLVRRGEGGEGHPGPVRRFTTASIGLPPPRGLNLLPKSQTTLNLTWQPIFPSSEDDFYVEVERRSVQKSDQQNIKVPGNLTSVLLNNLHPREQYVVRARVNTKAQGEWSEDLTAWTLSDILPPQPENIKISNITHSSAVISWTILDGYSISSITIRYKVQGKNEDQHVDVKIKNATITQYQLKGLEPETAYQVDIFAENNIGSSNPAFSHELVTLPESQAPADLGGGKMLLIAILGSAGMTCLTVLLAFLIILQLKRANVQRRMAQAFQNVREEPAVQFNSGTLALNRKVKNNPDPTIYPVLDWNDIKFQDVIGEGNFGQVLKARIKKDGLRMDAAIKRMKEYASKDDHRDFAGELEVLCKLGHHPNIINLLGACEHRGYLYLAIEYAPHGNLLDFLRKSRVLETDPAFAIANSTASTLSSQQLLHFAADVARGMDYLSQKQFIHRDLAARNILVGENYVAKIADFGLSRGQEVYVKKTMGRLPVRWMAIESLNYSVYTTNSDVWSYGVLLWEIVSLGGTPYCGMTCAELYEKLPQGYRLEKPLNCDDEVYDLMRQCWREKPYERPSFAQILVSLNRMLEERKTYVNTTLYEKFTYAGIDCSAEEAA

TrkA(h) = TrkA(h) (Homo sapiens, UniProt P04629)
Sequence of TrkA(h) (P04629 33-796): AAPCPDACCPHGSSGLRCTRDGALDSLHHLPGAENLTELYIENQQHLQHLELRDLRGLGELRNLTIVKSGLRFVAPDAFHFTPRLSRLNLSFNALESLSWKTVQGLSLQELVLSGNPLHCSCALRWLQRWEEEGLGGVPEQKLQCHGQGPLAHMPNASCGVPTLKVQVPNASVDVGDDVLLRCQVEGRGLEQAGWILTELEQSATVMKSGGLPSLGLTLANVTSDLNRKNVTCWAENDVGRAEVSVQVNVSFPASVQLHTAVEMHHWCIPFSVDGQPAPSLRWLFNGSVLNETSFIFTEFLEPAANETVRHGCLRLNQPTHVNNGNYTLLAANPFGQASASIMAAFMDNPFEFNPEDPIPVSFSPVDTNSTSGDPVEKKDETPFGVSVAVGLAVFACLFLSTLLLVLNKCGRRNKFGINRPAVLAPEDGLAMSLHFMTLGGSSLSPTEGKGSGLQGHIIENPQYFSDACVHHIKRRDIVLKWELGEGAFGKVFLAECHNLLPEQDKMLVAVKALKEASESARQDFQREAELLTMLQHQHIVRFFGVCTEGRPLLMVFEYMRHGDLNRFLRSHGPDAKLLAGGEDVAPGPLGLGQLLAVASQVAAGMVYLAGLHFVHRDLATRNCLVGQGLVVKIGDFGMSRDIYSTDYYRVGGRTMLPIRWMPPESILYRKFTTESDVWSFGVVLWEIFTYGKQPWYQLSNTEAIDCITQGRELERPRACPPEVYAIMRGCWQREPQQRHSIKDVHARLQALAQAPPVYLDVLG

`CC(C)CCC(=O)[C@]1(O)C(O)=C(C(=O)C(C)C)C(=O)[C@H]1CCC(C)C` [TH2, tetrahydroiso-cohumulone] was tested, and the kinase inhibition (Axl(h); 1 μg/ml) was 106% of control, the kinase inhibition (Axl(h); 5 μg/ml) was 110% of control and the kinase inhibition (Axl(h); 25 μg/ml) was 100% of control. For the same compound, the kinase inhibition (Axl(h); 50 μg/ml) was 86% of control, the kinase inhibition (Axl(h); 100 μg/ml) was 65% of control and the kinase inhibition (IKKα(h); 1 μg/ml) was 99% of control. The kinase inhibition (IKKα(h); 5 μg/ml) was 108% of control, the kinase inhibition (IKKα(h); 25 μg/ml) was 114% of control and the kinase inhibition (IKKα(h); 50 μg/ml) was 114% of control. For the same compound, the kinase inhibition (IKKα(h); 100 μg/ml) was 120% of control, the kinase inhibition (Lyn(h); 1 μg/ml) was 145% of control and the kinase inhibition (Lyn(h); 5 μg/ml) was 146% of control. For the same compound, the kinase inhibition (Lyn(h); 25 μg/ml) was 139% of control, the kinase inhibition (Lyn(h); 50 μg/ml) was 91% of control and the kinase inhibition (Lyn(h); 100 μg/ml) was 68% of control. For the same compound, the kinase inhibition (PhKγ2(h); 1 μg/ml) was 112% of control, the kinase inhibition (PhKγ2(h); 5 μg/ml) was 116% of control and the kinase inhibition (PhKγ2(h); 25 μg/ml) was 114% of control. The kinase inhibition (PhKγ2(h); 50 μg/ml) was 88% of control, the kinase inhibition (PhKγ2(h); 100 μg/ml) was 63% of control and the kinase inhibition (Tie2(h); 1 μg/ml) was 110% of control. The kinase inhibition (Tie2(h); 5 μg/ml) was 96% of control, the kinase inhibition (Tie2(h); 25 μg/ml) was 74% of control and the kinase inhibition (Tie2(h); 50 μg/ml) was 80% of control. For the same compound, the kinase inhibition (Tie2(h); 100 μg/ml) was 78% of control, the kinase inhibition (TrkA(h); 1 μg/ml) was 110% of control and the kinase inhibition (TrkA(h); 5 μg/ml) was 111% of control. The kinase inhibition (TrkA(h); 25 μg/ml) was 99% of control, the kinase inhibition (TrkA(h); 50 μg/ml) was 31% of control and the kinase inhibition (TrkA(h); 100 μg/ml) was 25% of control.
